Data as given in patent US8106055B2, “Substituted amide compounds” (Gruenenthal GmbH, priority 2007, dated 2012).

molecular target: T1, human μ opiate receptor (Homo sapiens, UniProt P35372); experiment: Affinity for the human μ opiate receptor ([3H]-naloxone displacement, CHO-K1 receptor membrane preparation, SPA); assay type: binding; details: test concentration of 1 μM
T1 construct: purchased PerkinElmer Life Sciences, Zaventem, Belgium RB-HOM; host or cells: CHO-K1 cells (membrane preparation)
Summary of the method: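 Test compounds, 1 nmol/l [3H]-naloxone and CHO-K1 membranes bearing the human μ opiate receptor are combined with WGA-SPA beads. After 90 minutes at room temperature, plates are centrifuged and radioactivity counted. Specific-binding inhibition at 1 μmol/l is given in percent.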

T1 sequence (P35372 whole entry): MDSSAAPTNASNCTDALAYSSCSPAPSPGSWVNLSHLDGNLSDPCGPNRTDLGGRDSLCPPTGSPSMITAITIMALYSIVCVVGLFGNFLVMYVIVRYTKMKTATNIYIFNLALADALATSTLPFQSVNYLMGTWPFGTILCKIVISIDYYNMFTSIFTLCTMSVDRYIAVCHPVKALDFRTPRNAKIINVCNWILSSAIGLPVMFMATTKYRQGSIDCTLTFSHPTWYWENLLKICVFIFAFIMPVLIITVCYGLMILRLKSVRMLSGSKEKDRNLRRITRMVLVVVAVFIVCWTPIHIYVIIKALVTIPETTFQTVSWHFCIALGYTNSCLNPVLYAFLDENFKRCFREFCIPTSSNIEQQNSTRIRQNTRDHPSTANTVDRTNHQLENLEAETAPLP

Going from `CN(C)C(c1ccccc1)C1CCC(CNC(=O)COCC2CCCN(S(=O)(=O)c3ccccc3)C2)CC1` (centres unmarked) [Example 129, N((4((dimethylamino)(phenyl)methyl)cyclohexyl)methyl)-2-((1-(phenylsulfonyl)piperidin-3-yl)methoxy)acetamide] to `CN(C)C(c1cccc(F)c1)C1CCC(CNC(=O)COCC2CCCN(S(=O)(=O)c3ccccc3)C2)CC1` (centres unmarked) [Example 220], the “μ (binding on the μ opioid receptor, % inhibition)” value falls from 89% to 73%.

Compared with `Cc1ccc(S(=O)(=O)N(C)CCOCC(=O)NC2CCC(C(c3cccs3)N(C)C)CC2)cc1` (centres unmarked) [Example 168, N-(4-((dimethylamino) (thiophen-2-yl)methyl)cyclohexyl)-2-(2-(N,4-dimethylphenylsulfamido)ethoxy)acetamide], `Cc1ccc(S(=O)(=O)N(C)CCOCC(=O)NC2CCC(C(c3cccc(F)c3)N(C)C)CC2)cc1` (centres unmarked) [Example 226] is lower in “μ (binding on the μ opioid receptor, % inhibition)” value: 83% for the first, 74% for the second.

First: COc1cc(C)c(S(=O)(=O)N(CCOCC(=O)NCC2CCC(C(c3ccccc3)N(C)C)CC2)Cc2ccccc2)c(C)c1C (centres unmarked) [Example 201]
Second: CCN(CCOCC(=O)NCC1CCC(C(c2ccccc2)N(C)C)CC1)S(=O)(=O)c1c(C)cc(OC)c(C)c1C (centres unmarked) [Example 231]
The “μ (binding on the μ opioid receptor, % inhibition)” value of the first is higher: 88% for the first, 82% for the second.

First: CN(C)C(c1cccc(F)c1)C1CCC(CCNC(=O)COCC2CCCN2S(=O)(=O)c2ccc(Cl)c(Cl)c2)CC1 (centres unmarked) [Example 202]
Second: CN(C)C(c1cccc(F)c1)C1CCC(NC(=O)COCC2CCCN2S(=O)(=O)c2ccc(Cl)c(Cl)c2)CC1 (centres unmarked) [Example 211]
The “μ (binding on the μ opioid receptor, % inhibition)” value of the first is higher: 85% for the first, 83% for the second.

Going from `COc1ccc(S(=O)(=O)N2CCCCC2CCOCC(=O)NCC2CCC(C(c3cccc(F)c3)N(C)C)CC2)cc1` (centres unmarked) [Example 203] to `COc1ccc(S(=O)(=O)N2CCCCC2CCOCC(=O)NCCC2CCC(C(c3cccc(F)c3)N(C)C)CC2)cc1` (centres unmarked) [Example 213], the “μ (binding on the μ opioid receptor, % inhibition)” value rises from 83% to 87%.

Going from `CN(C)C(c1cccc(F)c1)C1CCC(NC(=O)COC2CCN(S(=O)(=O)c3ccc(Cl)cc3)C2)CC1` (centres unmarked) [Example 204] to `CN(C)C(c1cccc(F)c1)C1CCC(CNC(=O)COC2CCN(S(=O)(=O)c3ccc(Cl)cc3)C2)CC1` (centres unmarked) [Example 258], the “μ (binding on the μ opioid receptor, % inhibition)” value falls from 81% to 80%.

Going from `CN(C)C(c1cccc(F)c1)C1CCC(NC(=O)COCCN(C)S(=O)(=O)c2ccc(F)cc2)CC1` (centres unmarked) [Example 205] to `COc1ccc(S(=O)(=O)N(C)CCOCC(=O)NC2CCC(C(c3cccc(F)c3)N(C)C)CC2)cc1` (centres unmarked) [Example 250], the “μ (binding on the μ opioid receptor, % inhibition)” value falls from 76% to 70%.

Going from `COc1ccc(S(=O)(=O)N(C)CCOCC(=O)NC2CCC(C(c3cccs3)N(C)C)CC2)cc1OC` (centres unmarked) [Example 206] to `COc1ccc(S(=O)(=O)N2CCCCC2COCC(=O)NC2CCC(C(c3cccs3)N(C)C)CC2)cc1OC` (centres unmarked) [Example 261], the “μ (binding on the μ opioid receptor, % inhibition)” value falls from 78% to 72%.

First: CN(C)C(c1ccc(Cl)cc1)C1CCC(CNC(=O)COCCN(C)S(=O)(=O)c2c(Cl)cccc2Cl)CC1 (centres unmarked) [Example 207]
Second: CN(C)C(c1ccc(F)cc1)C1CCC(CNC(=O)COCCN(C)S(=O)(=O)c2ccc(Cl)cc2Cl)CC1 (centres unmarked) [Example 249]
The “μ (binding on the μ opioid receptor, % inhibition)” value of the first is higher: 77% for the first, 70% for the second.

First: CN(C)C(c1cccc(F)c1)C1CCC(NC(=O)COCCN(C)S(=O)(=O)c2c(Cl)cc(Cl)cc2Cl)CC1 (centres unmarked) [Example 208]
Second: CN(C)C(c1cccc(F)c1)C1CCC(NC(=O)COCCN(C)S(=O)(=O)c2ccc(Cl)cc2Cl)CC1 (centres unmarked) [Example 217]
The “μ (binding on the μ opioid receptor, % inhibition)” value of the first is lower: 79% for the first, 89% for the second.

Going from `CCN(CCOCC(=O)NCCC1CCC(C(c2cccc(F)c2)N(C)C)CC1)S(=O)(=O)c1c(C)cc(OC)c(C)c1C` (centres unmarked) [Example 209] to `COc1cc(C)c(S(=O)(=O)N2CCC(OCC(=O)NCCC3CCC(C(c4cccc(F)c4)N(C)C)CC3)C2)c(C)c1C` (centres unmarked) [Example 253], the “μ (binding on the μ opioid receptor, % inhibition)” value falls from 85% to 76%.

Going from `COc1ccc(S(=O)(=O)N2CCCCC2CCOCC(=O)NC2CCC(C(c3ccc(F)cc3)N(C)C)CC2)cc1` (centres unmarked) [Example 212] to `COc1ccc(S(=O)(=O)N2CCCCC2COCC(=O)NC2CCC(C(c3cccc(F)c3)N(C)C)CC2)cc1` (centres unmarked) [Example 255], the “μ (binding on the μ opioid receptor, % inhibition)” value falls from 80% to 72%.

Compared with `CN(C)C(c1cccs1)C1CCC(CCNC(=O)COC2CCCCC2N(C)S(=O)(=O)c2ccc(Cl)c(Cl)c2)CC1` (centres unmarked) [Example 214], `CN(C)C(c1ccc(F)cc1)C1CCC(CCNC(=O)COC2CCCCC2N(C)S(=O)(=O)c2ccc(Cl)c(Cl)c2)CC1` (centres unmarked) [Example 244] is lower in “μ (binding on the μ opioid receptor, % inhibition)” value: 85% for the first, 81% for the second.

Going from `CN(C)C(c1cccc(F)c1)C1CCC(CCNC(=O)COCCN(C)S(=O)(=O)c2ccc(OC(F)(F)F)cc2)CC1` (centres unmarked) [Example 215] to `CN(C)C(c1cccc(F)c1)C1CCC(NC(=O)COCCN(C)S(=O)(=O)c2ccc(OC(F)(F)F)cc2)CC1` (centres unmarked) [Example 246], the “μ (binding on the μ opioid receptor, % inhibition)” value falls from 85% to 76%.

Compared with `Cc1ccc(S(=O)(=O)N2CCC(OCC(=O)NCCC3CCC(C(c4cccc(F)c4)N(C)C)CC3)C2)cc1` (centres unmarked) [Example 216], `CN(C)C(c1cccc(F)c1)C1CCC(CCNC(=O)COC2CCN(S(=O)(=O)c3ccc(Cl)cc3)C2)CC1` (centres unmarked) [Example 247] is higher in “μ (binding on the μ opioid receptor, % inhibition)” value: 72% for the first, 75% for the second.

First: CN(C)C(c1cccc(F)c1)C1CCC(CCNC(=O)COCCN(C)S(=O)(=O)c2ccc(F)cc2)CC1 (centres unmarked) [Example 218]
Second: CN(C)C(c1cccc(F)c1)C1CCC(CNC(=O)COCCN(C)S(=O)(=O)c2ccc(F)cc2)CC1 (centres unmarked) [Example 229]
The “μ (binding on the μ opioid receptor, % inhibition)” value of the first is higher: 82% for the first, 79% for the second.

Compared with `CN(C)C(c1ccccc1)C1CCC(CNC(=O)COC2CCN(S(=O)(=O)c3ccc(F)cc3)C2)CC1` (centres unmarked) [Example 219], `CN(C)C(c1cccc(F)c1)C1CCC(CNC(=O)COC2CCN(S(=O)(=O)c3ccc(Cl)cc3Cl)C2)CC1` (centres unmarked) [Example 225] is higher in “μ (binding on the μ opioid receptor, % inhibition)” value: 82% for the first, 83% for the second.

First: COc1cc(C)c(S(=O)(=O)N2CCCC(OCC(=O)NCCC3CCC(C(c4cccc(F)c4)N(C)C)CC3)C2)c(C)c1C (centres unmarked) [Example 221]
Second: COc1cc(C)c(S(=O)(=O)N2CCC(OCC(=O)NCCC3CCC(C(c4cccc(F)c4)N(C)C)CC3)CC2)c(C)c1C (centres unmarked) [Example 232]
The “μ (binding on the μ opioid receptor, % inhibition)” value of the first is higher: 82% for the first, 78% for the second.

`COc1cc(C)c(S(=O)(=O)N2CCN(CCOCC(=O)NC3CCC(C(c4ccc(F)cc4)N(C)C)CC3)CC2)c(C)c1C` (centres unmarked) [Example 222] and `COc1cc(C)c(S(=O)(=O)N2CCN(CCOCC(=O)NCC3CCC(C(c4cccc(F)c4)N(C)C)CC3)CC2)c(C)c1C` (centres unmarked) [Example 223] are the same in “μ (binding on the μ opioid receptor, % inhibition)” value: 77% for the first, 77% for the second.

First: COc1ccc(S(=O)(=O)N2CCCC2COCC(=O)NCCC2CCC(C(c3cccc(F)c3)N(C)C)CC2)cc1 (centres unmarked) [Example 224]
Second: Cc1ccc(S(=O)(=O)N(C)CCOCC(=O)NCCC2CCC(C(c3cccc(F)c3)N(C)C)CC2)cc1 (centres unmarked) [Example 240]
The “μ (binding on the μ opioid receptor, % inhibition)” value of the first is higher: 85% for the first, 74% for the second.

`Cc1ccc(S(=O)(=O)N(C)CCOCC(=O)NCC2CCC(C(c3cccc(F)c3)N(C)C)CC2)cc1` (centres unmarked) [Example 227] and `COc1ccc(S(=O)(=O)N(C)CCOCC(=O)NCC2CCC(C(c3ccccc3)N(C)C)CC2)cc1` (centres unmarked) [Example 242] are the same in “μ (binding on the μ opioid receptor, % inhibition)” value: 77% for the first, 77% for the second.

Compared with `COc1cc(C)c(S(=O)(=O)N(C)CCOCC(=O)NC2CCC(C(c3cccc(F)c3)N(C)C)CC2)c(C)c1` (centres unmarked) [Example 228], `COc1cc(C)c(S(=O)(=O)N(C)CCOCC(=O)NCC2CCC(C(c3cccc(F)c3)N(C)C)CC2)c(C)c1` (centres unmarked) [Example 248] is higher in “μ (binding on the μ opioid receptor, % inhibition)” value: 76% for the first, 81% for the second.

Compared with `CN(C)C(c1cccs1)C1CCC(CCNC(=O)COC2CCN(S(=O)(=O)c3ccccc3)CC2)CC1` (centres unmarked) [Example 230], `CN(C)C(c1cccc(F)c1)C1CCC(CCNC(=O)COC2CCN(S(=O)(=O)c3ccc(Cl)cc3Cl)C2)CC1` (centres unmarked) [Example 259] is higher in “μ (binding on the μ opioid receptor, % inhibition)” value: 82% for the first, 83% for the second.

First: COc1ccc(S(=O)(=O)N2Cc3ccccc3CC2COCC(=O)NC2CCC(C(c3ccc(F)cc3)N(C)C)CC2)cc1 (centres unmarked) [Example 234]
Second: COc1ccc(S(=O)(=O)N2CCCCC2COCC(=O)NC2CCC(C(c3cccs3)N(C)C)CC2)cc1 (centres unmarked) [Example 243]
The “μ (binding on the μ opioid receptor, % inhibition)” value of the first is lower: 76% for the first, 79% for the second.

Compared with `Cc1cc(C)c(S(=O)(=O)N(C)CCOCC(=O)NC2CCC(C(c3cccs3)N(C)C)CC2)c(C)c1` (centres unmarked) [Example 235], `COc1cc(C)c(S(=O)(=O)N(C)CCOCC(=O)NC2CCC(C(c3ccccc3)N(C)C)CC2)c(C)c1` (centres unmarked) [Example 239] is lower in “μ (binding on the μ opioid receptor, % inhibition)” value: 76% for the first, 38% for the second.

First: CN(C)C(c1ccc(Cl)cc1)C1CCC(CCNC(=O)COCCN(C)S(=O)(=O)c2ccc(F)cc2)CC1 (centres unmarked) [Example 241]
Second: CN(C)C(c1ccc(F)cc1)C1CCC(NC(=O)COC2CCCCC2N(C)S(=O)(=O)c2ccc(Cl)c(Cl)c2)CC1 (centres unmarked) [Example 256]
The “μ (binding on the μ opioid receptor, % inhibition)” value of the first is lower: 67% for the first, 73% for the second.

Compared with `COc1cc(C)c(S(=O)(=O)N2CCC(OCC(=O)NC3CCC(C(c4cccc(F)c4)N(C)C)CC3)C2)c(C)c1` (centres unmarked) [Example 251], `COc1cc(C)c(S(=O)(=O)N2CCC(OCC(=O)NCC3CCC(C(c4cccc(F)c4)N(C)C)CC3)C2)c(C)c1C` (centres unmarked) [Example 252] is higher in “μ (binding on the μ opioid receptor, % inhibition)” value: 77% for the first, 82% for the second.

First: COc1cc(C)c(S(=O)(=O)N(CCOCC(=O)NCCC2CCC(C(c3cccs3)N(C)C)CC2)Cc2ccccc2)c(C)c1C (centres unmarked) [Example 254]
Second: COc1ccc(S(=O)(=O)N2CCC(OCC(=O)NCC3CCC(C(c4ccc(Cl)cc4)N(C)C)CC3)C2)cc1OC (centres unmarked) [Example 260]
The “μ (binding on the μ opioid receptor, % inhibition)” value of the first is higher: 83% for the first, 76% for the second.
